| CH4 permeability [Barrer] | CO2 permeability [Barrer] | H2 permeability [Barrer] | N2 permeability [Barrer] | O2 permeability [Barrer] | SMILES |
| --- | --- | --- | --- | --- | --- |
| 170 | 1300 | 440 | 65 | 180 | *C(=C(*)c1ccc(-c2ccccc2)cc1)c1ccccc1 (repeat unit) |
| 46 | 530 | 340 | 23 | 82 | *C(=C(*)c1ccc(C(C)(C)C)cc1)c1ccc(O)cc1 (repeat unit) |
| 540 | 2300 | 1000 | 210 | 470 | *C(=C(*)c1ccc(C(C)(C)C)cc1)c1ccc(O[Si](C)(C)C(C)(C)C)cc1 (repeat unit) |
| 140 | 800 | 315 | 55 | 140 | *C(=C(*)c1ccc(O[Si](C)(C)C(C)(C)C)cc1)c1ccc(F)cc1 (repeat unit) |
| 1.32 | 4.7 | – | 1.43 | 7.3 | *OC(=O)c1ccc(C(=O)Oc2c(C)cc(C(C)(C)c3cc(C)c(O*)c(C)c3)cc2C)cc1 (repeat unit) |
| 0.17 | 5.8 | – | 0.23 | 1.12 | *OC(=O)c1ccc(C(=O)Oc2ccc(C(C)(C)c3ccc(O*)c(C)c3)cc2C)cc1 (repeat unit) |
| 0.18 | 5 | – | 0.15 | 1.04 | *OC(=O)c1ccc(C(=O)Oc2ccc(C3(c4ccc(O*)c(C)c4)OC(=O)c4ccccc43)cc2C)cc1 (repeat unit) |
| 0.47 | 11.7 | – | 0.41 | 2.15 | *OC(=O)c1ccc(C(=O)Oc2ccc(C3(c4ccc(O*)cc4)OC(=O)c4ccccc43)cc2)cc1 (repeat unit) |
| 0.142 | 4.93 | 18.1 | 0.179 | 1.29 | *Oc1c(Br)cc(C(C)(C)c2cc(Br)c(OC(=O)c3cccc(C(*)=O)c3)c(Br)c2)cc1Br (repeat unit) |
| 1.49 | 21.4 | – | 2.42 | 7.36 | *Oc1c(C)cc(*)c(C(=O)c2ccc(C)cc2)c1C (repeat unit) |
| 0.76 | 11.4 | – | 1.27 | 5.04 | *Oc1c(C)cc(*)c(C(=O)c2ccc([N+](=O)[O-])cc2)c1C (repeat unit) |
| 0.925 | 18.6 | 11.1 | 0.91 | 4.55 | *Oc1c(C)cc(-c2cc(C)c(Oc3ccc(S(=O)(=O)c4ccc(*)cc4)cc3)c(C)c2)cc1C (repeat unit) |
| 0.94 | 25.5 | 63 | 1.2 | 6 | *Oc1c(C)cc(-c2cc(C)c(Oc3ccc(S(=O)(=O)c4ccc(*)cc4)cc3)c(C)c2C)c(C)c1C (repeat unit) |
| 0.151 | 5.45 | 23.3 | 0.219 | 1.52 | *Oc1c(C)cc(C(C)(C)c2cc(C)c(OC(=O)c3cccc(C(*)=O)c3)c(Br)c2)cc1Br (repeat unit) |
| 0.95 | 21 | – | 1.06 | 5.6 | *Oc1c(C)cc(C(C)(C)c2cc(C)c(Oc3ccc(S(=O)(=O)c4ccc(*)cc4)cc3)c(C)c2)cc1C (repeat unit) |
| 0.6 | 13.2 | – | 0.571 | 3.2 | *Oc1c(C)cc(C(C)(C)c2ccc(C(C)(C)c3cc(C)c(Oc4ccc(S(=O)(=O)c5ccc(*)cc5)cc4)c(C)c3)cc2)cc1C (repeat unit) |

The next lines start with the compound.

| SMILES | CH4 permeability [Barrer] | CO2 permeability [Barrer] | H2 permeability [Barrer] | N2 permeability [Barrer] | O2 permeability [Barrer] |
| --- | --- | --- | --- | --- | --- |
| *OC1OC(COC(=O)NC(C)(C)C)C(*)C(OCC)C1OCC (repeat unit) | 9.45 | 94.5 | 73 | 4.3 | 16 |
| *OC1OC(OC(C)=O)C(*)C(O)C1OC(C)=O (repeat unit) | 0.15 | 3.5 | 12 | 0.14 | 0.735 |
| *OC1OC(OC(C)=O)C(*)C(OC(C)=O)C1OC(C)=O (repeat unit) | 0.2 | 6.56 | 15.5 | 0.23 | 1.46 |
| *O[Si](*)(C)C (repeat unit) | 1350 | 4180 | 890 | 351 | 800 |
| *O[Si](*)(C)CC (repeat unit) | 474 | 1510 | – | 160 | 332 |
| *O[Si](*)(C)CCC (repeat unit) | 570 | 2300 | – | 182 | 394 |
| *O[Si](*)(C)CCCCCCCC (repeat unit) | 313 | 932 | – | 88.3 | 196 |
| *O[Si](*)(C)c1ccccc1 (repeat unit) | 36 | 239 | – | 8.59 | 28.8 |
| *O[Si](C)(C)CC[Si](*)(C)C (repeat unit) | 597 | 1880 | – | – | 394 |
| *O[Si](C)(C)c1ccc([Si](*)(C)C)cc1 (repeat unit) | 12 | 65 | – | – | 11 |
| *O[Si](C)(C)c1cccc([Si](*)(C)C)c1 (repeat unit) | 106 | 518 | – | – | 74 |
| *Oc1c(-c2ccccc2)cc(*)cc1-c1ccccc1 (repeat unit) | 2.7 | 39.9 | 28 | 1.5 | 7.7 |
| *Oc1c(Br)cc(C(c2cc(Br)c(OC(=O)c3cc(C(*)=O)cc(C(C)(C)C)c3)c(Br)c2)(C(F)(F)F)C(F)(F)F)cc1Br (repeat unit) | 3.36 | 85.1 | 149 | 4.47 | 22.1 |
| *Oc1c(Br)cc(C(c2cc(Br)c(OC(=O)c3cccc(C(*)=O)c3)c(Br)c2)(C(F)(F)F)C(F)(F)F)cc1Br (repeat unit) | 0.597 | 35.6 | 65 | 1.07 | 6.75 |
| *Oc1c(Br)cc(C2(c3cc(Br)c(OC(=O)c4cc(C(*)=O)cc(C(C)(C)C)c4)c(Br)c3)OC(=O)c3ccccc32)cc1Br (repeat unit) | 1.09 | 30.6 | 67.4 | 1.19 | 7.41 |
| *Oc1c(Br)cc(C2(c3cc(Br)c(OC(=O)c4cccc(C(*)=O)c4)c(Br)c3)OC(=O)c3ccccc32)cc1Br (repeat unit) | 0.206 | 8.34 | 27.1 | 0.282 | 1.96 |
| *Oc1c(C)cc(*)c(C(=O)c2ccccc2)c1C (repeat unit) | 0.95 | 14.3 | – | 1.59 | 6 |
| *Oc1c(C)cc(C(C)(C)c2cc(C)c(OC(*)=O)c(C)c2)cc1C (repeat unit) | 0.89 | 18.6 | 32 | 1.1 | 5.6 |
| *Oc1c(C)cc(C(C)(C)c2cc(C)c(OC(=O)c3cc(C(*)=O)cc(C(C)(C)C)c3)c(C)c2)cc1C (repeat unit) | 2.72 | 45.3 | 96 | 2.6 | 12.7 |
| *Oc1c(C)cc(C(c2cc(C)c(OC(*)=O)c(C)c2)(C(F)(F)F)C(F)(F)F)cc1C (repeat unit) | 2.79 | 71.5 | 126 | 4.75 | 20.9 |
| *Oc1cc(C)c(C(c2cc(C(C)C)c(Oc3ccc(S(=O)(=O)c4ccc(*)cc4)cc3)cc2C)c2ccccc2C(=O)O)cc1C(C)C (repeat unit) | 1.13 | 25.1 | 49.6 | 0.757 | 4.53 |
| *Oc1cc(C)c(C2(c3cc(C(C)C)c(Oc4ccc(S(=O)(=O)c5ccc(*)cc5)cc4)cc3C)OC(=O)c3ccccc32)cc1C(C)C (repeat unit) | 0.928 | 19.4 | 30.6 | 0.699 | 4.85 |
| *Oc1cc2c(cc1O*)C1(CC2(C)C)CC(C)(C)c2cc3c(cc21)Oc1c(C#N)c(*)c(*)c(C#N)c1O3 (repeat unit) | 298 | 5090 | 2280 | 256 | 913 |
| *Oc1cc2c(cc1O*)C1(CC2(C)C)CC(C)(C)c2cc3c(cc21)Oc1c(CN)c(*)c(*)c(CN)c1O3 (repeat unit) | 257 | 1590 | 2280 | 176 | 752 |
| *Oc1cc2c(cc1O*)C1(CC2(C)C)CC(C)(C)c2cc3c(cc21)Oc1cc2nc4cc5c(cc4nc2cc1O3)C(C)(C)CC51CC(C)(C)c2cc3nc4cc(*)c(*)cc4nc3cc21 (repeat unit) | 62 | 1100 | 860 | 42 | 190 |
| *Oc1cc2c(cc1O*)C1(c3cc(C)c(C)cc3-2)c2cc(C)c(C)cc2-c2cc3c(cc21)Oc1c(C#N)c(*)c(*)c(C#N)c1O3 (repeat unit) | 1100 | 13100 | 6700 | 658 | 2360 |
| *Oc1ccc(-c2c(-c3ccc(Br)cc3)c(-c3ccc(Br)cc3)c(-c3ccc4c(c3)Oc3c(C#N)c(*)c(*)c(C#N)c3O4)c(-c3ccc(Br)cc3)c2-c2ccc(Br)cc2)cc1O* (repeat unit) | 102 | 1430 | 694 | 54 | 203 |

From a polymer gas permeability compilation
